The source made the active and inactive calls. The rule behind the calls is not given here.
Key:
[1] = test system: MCF7; assay: Induction of apoptosis in human MCF7 cells assessed as necrotic cells at 0.5 uM incubated for 48 hrs by Annexin V-FITC/PI staining based flow cytometry (reference value: 0.03 %); assay type: functional
[2] = target: Cytoplasmic tyrosine-protein kinase BMX (Homo sapiens) (UniProt P51813); assay: Inhibition of human Bmx at 1 uM by KINOMEscan assay relative to control
[3] = test system: MCF7; assay: Antiproliferative activity against human MCF7 cells assessed as inhibition of cell viability upto 10 uM by MTT assay; assay type: functional, cell-based; conditions: time 24-72 hrs, TDE = time-dependent effect
[4] = test system: MCF7; assay: Induction of apoptosis in human MCF7 cells assessed as early apoptotic cells at 0.5 uM incubated for 48 hrs by Annexin V-FITC/PI staining based flow cytometry (reference value: 1.19 %); assay type: functional
[5] = target: T1, Dual specificity protein kinase TTK (Homo sapiens, UniProt P33981); assay: Inhibition of Mps1 (unknown origin) incubated for 120 mins in presence of substrate/ATP by ADP-Glo assay
T1 sequence (P33981 whole entry): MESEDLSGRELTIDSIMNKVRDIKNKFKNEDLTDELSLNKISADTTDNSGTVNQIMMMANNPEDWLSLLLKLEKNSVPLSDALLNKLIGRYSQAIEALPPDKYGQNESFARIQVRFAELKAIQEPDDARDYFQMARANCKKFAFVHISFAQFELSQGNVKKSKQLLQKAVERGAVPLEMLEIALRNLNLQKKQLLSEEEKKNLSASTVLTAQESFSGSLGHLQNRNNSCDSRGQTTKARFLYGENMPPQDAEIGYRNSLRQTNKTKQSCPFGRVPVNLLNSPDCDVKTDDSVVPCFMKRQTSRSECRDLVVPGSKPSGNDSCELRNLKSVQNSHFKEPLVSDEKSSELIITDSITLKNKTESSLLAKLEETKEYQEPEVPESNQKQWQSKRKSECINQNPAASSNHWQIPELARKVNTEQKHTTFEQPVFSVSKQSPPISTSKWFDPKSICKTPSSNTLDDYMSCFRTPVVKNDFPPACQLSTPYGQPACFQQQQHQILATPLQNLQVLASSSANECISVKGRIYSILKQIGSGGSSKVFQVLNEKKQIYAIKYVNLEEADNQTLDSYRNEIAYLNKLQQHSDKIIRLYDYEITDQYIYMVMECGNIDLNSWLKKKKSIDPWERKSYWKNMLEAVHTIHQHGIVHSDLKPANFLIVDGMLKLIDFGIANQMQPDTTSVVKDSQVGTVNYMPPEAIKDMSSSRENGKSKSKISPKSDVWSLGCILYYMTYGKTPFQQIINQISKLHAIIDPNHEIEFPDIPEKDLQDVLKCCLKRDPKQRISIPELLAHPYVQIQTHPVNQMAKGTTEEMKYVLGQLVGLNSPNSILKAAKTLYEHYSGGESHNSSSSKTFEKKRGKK

[6] = test system: HEK293; assay: Antiproliferative activity against HEK293 cells assessed as inhibition of cell viability by MTT assay; assay type: toxicity, cell-based; conditions: human
[7] = Antitumor activity against mouse 4T1-Luc cells xenografted in BALB/C mouse assessed as reduction in mean tumor weight at 60 mg/kg, po qd treated for 15 days (reference value: 3.56 g); assay type: functional; conditions: time 15 day
[8] = test system: MDA-MB-231; assay: Antiproliferative activity against human MDA-MB-231 cells assessed as inhibition of cell viability by MTT assay; assay type: functional, cell-based
[9] = test system: MCF7; assay: Antiproliferative activity against human MCF7 cells assessed as inhibition of cell viability incubated for 24 to 72 hrs by MTT assay; assay type: functional, cell-based; conditions: dose <= 10.0 µM, time 24-72 hrs
[10] = test system: GES1; assay: Antiproliferative activity against human GES1 cells assessed as inhibition of cell viability by MTT assay; assay type: toxicity, cell-based
[11] = test system: HEY; assay: Antiproliferative activity against human HEY cells assessed as inhibition of cell viability by MTT assay; assay type: functional, cell-based
[12] = target: Hepatocyte growth factor receptor (Homo sapiens) (UniProt P08581); assay: Inhibition of human Met at 0.1 uM by KINOMEscan assay relative to control
[13] = test system: 4T1; assay: Induction of cell cycle arrest in 4T1 cells at G2/M phase assessed as decrease in cyclin B1 level incubated for 24 hrs by Western blot analysis; assay type: functional, cell-based; conditions: Mus musculus, dose <= 3.0 µM
[14] = test system: MCF7; assay: Induction of apoptosis in human MCF7 cells assessed as early apoptotic cells at 5 uM incubated for 48 hrs by Annexin V-FITC/PI staining based flow cytometry (reference value: 1.19 %); assay type: functional
[15] = Toxicity in BALB/C mouse xenografted with mouse 4T1-Luc cells assessed as histological change in spleen at 30 to 60 mg/kg, po qd treated for 15 days by H and E staining based analysis; assay type: organism-based; conditions: in vivo, 360 h, dose 30-60 mg/kg, time 15 day
[16] = test system: 4T1; assay: Induction of cell cycle arrest in 4T1 cells at G2/M phase assessed as decrease in CDK1 level incubated for 24 hrs by Western blot analysis; assay type: functional, cell-based; conditions: Mus musculus, dose <= 3.0 µM
[17] = target: Hepatocyte growth factor receptor (Homo sapiens) (UniProt P08581); assay: Inhibition of human Met at 1 uM by KINOMEscan assay relative to control
[18] = test system: L02; assay: Antiproliferative activity against human L02 cells assessed as inhibition of cell viability by MTT assay; assay type: toxicity, cell-based
[19] = test system: 4T1-Luc; assay: Antitumor activity against mouse 4T1-Luc cells xenografted in BALB/C mouse assessed as delay in tumor growth at 30 to 60 mg/kg, po qd treated for 15 days; assay type: functional, organism-based; conditions: dose 30-60 mg/kg, time 15.0 day
[20] = test system: A549; assay: Antiproliferative activity against human A549 cells assessed as inhibition of cell viability by MTT assay; assay type: functional, cell-based
[21] = Toxicity in BALB/C mouse xenografted with mouse 4T1-Luc cells assessed as body weight change at 30 to 60 mg/kg, po qd treated for 15 days; assay type: organism-based; conditions: in vivo, 360 h, dose 30-60 mg/kg, time 15 day
[22] = test system: OVCAR-3; assay: Antiproliferative activity against human OVCAR-3 cells assessed as inhibition of cell viability by MTT assay; assay type: functional, cell-based
[23] = test system: 4T1; assay: Induction of apoptosis in 4T1 cells assessed as increase in cleaved caspase-3 level upto 3 uM incubated for 48 hrs by Western blot analysis; assay type: functional, cell-based; conditions: Mus musculus
[24] = test system: MDA-MB-231; assay: Antiproliferative activity against human MDA-MB-231 cells assessed as inhibition of cell viability upto 10 uM incubated for 72 hrs by MTT assay; assay type: functional, cell-based
[25] = target: Tyrosine-protein kinase Yes (Homo sapiens) (UniProt P07947); assay: Inhibition of human Yes at 0.1 uM by KINOMEscan assay relative to control
[26] = test system: 4T1; assay: Induction of cell cycle arrest in 4T1 cells at G2/M phase incubated for 24 hrs by Annexin V/PI staining based flow cytometry; assay type: functional; conditions: Mus musculus, dose <= 5.0 µM
[27] = test system: 4T1; assay: Induction of apoptosis in 4T1 cells assessed as early apoptotic cells at 0.5 uM incubated for 48 hrs by Annexin V-FITC/PI staining based flow cytometry (reference value: 0.32 %); assay type: functional, Mus musculus
[28] = test system: 4T1; assay: Antiproliferative activity against 4T1 cells assessed as inhibition of cell viability by MTT assay; assay type: functional, cell-based; conditions: Mus musculus
[29] = test system: ES-2; assay: Antiproliferative activity against human ES2 cells assessed as inhibition of cell viability by MTT assay; assay type: functional, cell-based

Hepatocyte growth factor receptor (Homo sapiens), sequence (P08581 whole entry): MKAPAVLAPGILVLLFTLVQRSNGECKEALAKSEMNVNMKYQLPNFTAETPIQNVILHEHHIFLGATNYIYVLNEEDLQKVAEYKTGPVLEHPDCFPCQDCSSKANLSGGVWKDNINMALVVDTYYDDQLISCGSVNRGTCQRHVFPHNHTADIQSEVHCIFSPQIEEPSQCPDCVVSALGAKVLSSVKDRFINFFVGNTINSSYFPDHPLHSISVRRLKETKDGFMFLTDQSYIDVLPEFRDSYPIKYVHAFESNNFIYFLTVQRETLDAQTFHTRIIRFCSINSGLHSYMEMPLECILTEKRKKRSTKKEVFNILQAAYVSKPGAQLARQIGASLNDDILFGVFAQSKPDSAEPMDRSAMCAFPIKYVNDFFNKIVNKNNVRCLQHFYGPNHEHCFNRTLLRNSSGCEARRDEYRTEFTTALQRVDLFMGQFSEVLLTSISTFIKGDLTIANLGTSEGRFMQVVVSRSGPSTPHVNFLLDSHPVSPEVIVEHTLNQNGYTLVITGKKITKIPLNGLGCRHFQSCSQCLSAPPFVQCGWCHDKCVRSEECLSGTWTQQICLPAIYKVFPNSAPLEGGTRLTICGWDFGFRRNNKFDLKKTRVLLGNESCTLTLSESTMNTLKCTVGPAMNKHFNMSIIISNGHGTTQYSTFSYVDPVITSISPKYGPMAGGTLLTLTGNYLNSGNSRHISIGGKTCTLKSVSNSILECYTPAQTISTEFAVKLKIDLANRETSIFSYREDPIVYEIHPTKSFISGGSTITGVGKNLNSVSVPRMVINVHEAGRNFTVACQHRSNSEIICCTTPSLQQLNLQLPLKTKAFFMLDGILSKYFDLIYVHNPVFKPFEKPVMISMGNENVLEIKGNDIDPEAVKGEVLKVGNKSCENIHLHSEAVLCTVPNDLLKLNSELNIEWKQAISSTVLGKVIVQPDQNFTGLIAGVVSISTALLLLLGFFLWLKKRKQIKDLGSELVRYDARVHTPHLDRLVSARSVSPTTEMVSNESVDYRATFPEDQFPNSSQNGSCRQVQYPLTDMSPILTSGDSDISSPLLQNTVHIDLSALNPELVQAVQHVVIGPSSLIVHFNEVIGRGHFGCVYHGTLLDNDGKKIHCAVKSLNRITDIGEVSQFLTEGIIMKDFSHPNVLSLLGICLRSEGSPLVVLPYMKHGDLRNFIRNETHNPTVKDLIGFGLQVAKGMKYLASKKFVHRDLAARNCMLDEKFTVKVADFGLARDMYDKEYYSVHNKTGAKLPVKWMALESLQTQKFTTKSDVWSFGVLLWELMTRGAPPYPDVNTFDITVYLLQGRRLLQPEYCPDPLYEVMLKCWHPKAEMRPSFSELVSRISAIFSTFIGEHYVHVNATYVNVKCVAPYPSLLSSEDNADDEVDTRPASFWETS
Cytoplasmic tyrosine-protein kinase BMX (Homo sapiens), sequence (P51813 whole entry): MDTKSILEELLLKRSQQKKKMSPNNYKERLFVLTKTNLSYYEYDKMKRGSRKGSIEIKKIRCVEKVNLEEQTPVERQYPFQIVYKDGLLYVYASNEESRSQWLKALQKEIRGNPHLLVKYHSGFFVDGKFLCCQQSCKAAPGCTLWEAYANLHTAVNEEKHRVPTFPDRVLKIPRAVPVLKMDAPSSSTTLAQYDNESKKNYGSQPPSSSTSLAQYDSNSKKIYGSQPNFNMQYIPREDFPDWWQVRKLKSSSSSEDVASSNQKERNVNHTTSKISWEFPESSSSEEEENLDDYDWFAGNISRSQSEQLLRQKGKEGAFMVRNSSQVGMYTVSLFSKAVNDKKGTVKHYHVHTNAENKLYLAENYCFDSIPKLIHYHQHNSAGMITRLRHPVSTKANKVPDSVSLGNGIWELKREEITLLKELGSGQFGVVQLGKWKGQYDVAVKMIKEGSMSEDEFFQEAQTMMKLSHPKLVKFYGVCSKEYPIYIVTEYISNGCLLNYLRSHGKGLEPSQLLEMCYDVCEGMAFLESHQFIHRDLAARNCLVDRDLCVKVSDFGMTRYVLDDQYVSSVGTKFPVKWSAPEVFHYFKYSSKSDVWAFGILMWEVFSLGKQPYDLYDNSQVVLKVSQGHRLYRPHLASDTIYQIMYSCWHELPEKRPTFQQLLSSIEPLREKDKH
Tyrosine-protein kinase Yes (Homo sapiens), sequence (P07947 2-543 limits assumed): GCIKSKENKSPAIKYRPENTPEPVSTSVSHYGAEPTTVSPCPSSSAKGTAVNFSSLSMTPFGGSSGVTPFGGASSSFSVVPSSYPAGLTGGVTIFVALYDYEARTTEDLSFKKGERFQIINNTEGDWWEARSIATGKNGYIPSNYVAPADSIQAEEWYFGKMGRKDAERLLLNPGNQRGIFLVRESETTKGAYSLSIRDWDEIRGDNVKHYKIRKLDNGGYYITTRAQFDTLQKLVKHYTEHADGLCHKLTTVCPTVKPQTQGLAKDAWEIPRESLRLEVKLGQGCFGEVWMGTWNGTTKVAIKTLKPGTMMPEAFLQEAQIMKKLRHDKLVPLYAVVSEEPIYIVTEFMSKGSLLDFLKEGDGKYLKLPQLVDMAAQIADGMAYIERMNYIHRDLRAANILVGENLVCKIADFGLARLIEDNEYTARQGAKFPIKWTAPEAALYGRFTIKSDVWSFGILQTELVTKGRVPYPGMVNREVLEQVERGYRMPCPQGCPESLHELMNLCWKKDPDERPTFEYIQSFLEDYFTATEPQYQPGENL

CN1CCN(c2ccc(Nc3nc(-n4nc(N)c5ccccc54)c4cc[nH]c4n3)cc2)CC1
Activity [1]: 0.17% | inhibition [2]: 95% | inhibition [3]: Tde | Activity [4]: 6.55% | IC50 [5]: 29 nM | Activity [6]: Non-Toxic | Activity [7]: 0.97 g | IC50 [8]: 2680 nM | inhibition [9]: Dose-Dependent Effect | Activity [10]: Non-Toxic | IC50 [11]: > 3000 nM | inhibition [12]: 53% | Activity [13]: Dose-Dependent Effect | Activity [14]: 2.3% | Activity [15]: Non-Toxic | Activity [16]: Dose-Dependent Effect | inhibition [17]: 100% | Activity [18]: Non-Toxic | Activity [19]: Active | IC50 [20]: 2030 nM | Activity [21]: Non-Toxic | IC50 [22]: > 3000 nM | Activity [23]: Active | inhibition [24]: Active | inhibition [25]: 80% | Activity [26]: Dose-Dependent Effect | Activity [27]: 1.17% | IC50 [28]: 400 nM | IC50 [29]: > 3000 nM
